Active and inactive are the calls of the source. The rule behind the calls is not given here.
What was measured:
[1] = molecular target: Tyrosine-protein kinase JAK2 (Homo sapiens, UniProt O60674); experiment: Binding affinity to JAK2 (unknown origin) by ADP-glo kinase assay
[2] = test system: Mus musculus; experiment: Anti-inflammatory activity in imiquimod-induced female BALB/c mouse psoriasis model assessed as reduction in concomitant splenomegaly at 5 mg/kg, ip administered daily topically for 6 days; assay type: functional, organism-based; conditions: time 6.0 day
[3] = test system: Mus musculus; experiment: Anti-inflammatory activity in imiquimod-induced female BALB/c mouse psoriasis model assessed as reduction in inflammatory infiltration at 5 mg/kg, ip administered daily topically for 6 days by H and E staining based analysis; assay type: functional, organism-based; conditions: time 6.0 day
[4] = test system: Mus musculus; experiment: Anti-inflammatory activity in imiquimod-induced female BALB/c mouse psoriasis model assessed as alleviation of psoriasis pathology at 15 mg/kg, ip administered daily topically for 6 days; assay type: functional, organism-based; conditions: time 6.0 day
[5] = test system: Mus musculus; experiment: Anti-inflammatory activity in imiquimod-induced female BALB/c mouse psoriasis model assessed as reduction in psoriasis area severity index at 5 mg/kg, ip administered daily topically for 6 days; assay type: functional, organism-based; conditions: time 6.0 day
[6] = molecular target: T1, Protein cereblon/Non-receptor tyrosine-protein kinase TYK2 (Homo sapiens, UniProt P29597+Q96SW2); experiment: PROTAC activity at CRBN/TYK2 in human Jurkat cells assessed as induction of degradation of TYK2 at 10 nM preincubated with bortezomib for 2 hrs followed by compound addition and measured after 10 hrs by Western blot analysis; assay type: cell-based
[7] = test system: Mus musculus; experiment: Anti-inflammatory activity in imiquimod-induced female BALB/c mouse psoriasis model assessed as reduction in acanthosis at 5 mg/kg, ip administered daily topically for 6 days by H and E staining based analysis; assay type: functional, organism-based; conditions: time 6.0 day
[8] = species on record: Mus musculus; experiment: Anti-inflammatory activity in imiquimod-induced female BALB/c mouse psoriasis model assessed as reduction in IL-23 expression in skin by ELISA method; assay type: functional, organism-based
[9] = test system: Jurkat; experiment: Downregulation of TYK2 protein level in human Jurkat cells at 30 nM measured after 4 hrs by DIA-Based Proteomic analysis; assay type: functional, cell-based
[10] = molecular target: T1, Protein cereblon/Non-receptor tyrosine-protein kinase TYK2; experiment: PROTAC activity at CRBN/TYK2 in human Jurkat cells assessed as induction of degradation of TYK2 at 10 nM measured after 10 to 36 hrs by Western blot analysis relative to control; assay type: cell-based; conditions: time 10-36 hrs
[11] = AUC (0 to t) in male ICR mouse at 5 mg/kg, ip measured up to 24 hrs by LC-MS/MS analysis; assay type: ADME, organism-based; conditions: in vivo
[12] = molecular target: T1, Protein cereblon/Non-receptor tyrosine-protein kinase TYK2; experiment: PROTAC activity at CRBN/TYK2 in human Jurkat cells assessed as induction of degradation of TYK2 at 10 nM preincubated with thalidomide for 2 hrs followed by compound addition and measured after 10 hrs by Western blot analysis; assay type: cell-based
[13] = molecular target: T1, Protein cereblon/Non-receptor tyrosine-protein kinase TYK2; experiment: PROTAC activity at CRBN/TYK2 in human Jurkat cells assessed as induction of degradation of TYK2 at 10 nM measured after 4 hrs by Western blot analysis; assay type: cell-based
[14] = molecular target: T1, Protein cereblon/Non-receptor tyrosine-protein kinase TYK2; experiment: PROTAC activity at CRBN/TYK2 in human Jurkat cells assessed as induction of degradation of TYK2 at 10 nM preincubated with MLN4924 for 2 hrs followed by compound addition and measured after 10 hrs by Western blot analysis; assay type: cell-based
[15] = species on record: Mus musculus; experiment: Anti-inflammatory activity in imiquimod-induced female BALB/c mouse psoriasis model assessed as reduction in INF-alpha expression in serum by ELISA method; assay type: functional, organism-based
[16] = Selectivity ratio of IC50 for displacement of fluorophore-labeled probe from JAK2 JH2 domain (unknown origin) to IC50 for displacement of fluorophore-labeled probe from TYK2 JH2 domain (unknown origin)
[17] = test system: Jurkat; experiment: Downregulation of JAK2 protein level in human Jurkat cells at 1 to 100 nM measured after 10 hrs by Western blot analysis; assay type: functional, cell-based; conditions: dose 1-100 nM
[18] = molecular target: T1, Protein cereblon/Non-receptor tyrosine-protein kinase TYK2; experiment: PROTAC activity at CRBN/TYK2 in human Jurkat cells assessed as induction of degradation of TYK2 at 10 nM preincubated with cycloheximide for 2 hrs followed by compound addition and measured after 10 hrs by Western blot analysis; assay type: cell-based
[19] = molecular target: T1, Protein cereblon/Non-receptor tyrosine-protein kinase TYK2; experiment: PROTAC activity at CRBN/TYK2 in human Jurkat cells assessed as induction of degradation of TYK2 at 10 nM preincubated for 24 hrs followed by compound washout and followed by incubation in compound free medium by Western blot analysis; assay type: cell-based
[20] = test system: Jurkat; experiment: Downregulation of JAK3 protein level in human Jurkat cells at 1 to 100 nM measured after 10 hrs by Western blot analysis; assay type: functional, cell-based; conditions: dose 1-100 nM
[21] = molecular target: T2, Tyrosine-protein kinase JAK3 (Homo sapiens, UniProt P52333); experiment: Binding affinity to JAK3 (unknown origin) by ADP-glo kinase assay
T2 sequence (P52333 whole entry): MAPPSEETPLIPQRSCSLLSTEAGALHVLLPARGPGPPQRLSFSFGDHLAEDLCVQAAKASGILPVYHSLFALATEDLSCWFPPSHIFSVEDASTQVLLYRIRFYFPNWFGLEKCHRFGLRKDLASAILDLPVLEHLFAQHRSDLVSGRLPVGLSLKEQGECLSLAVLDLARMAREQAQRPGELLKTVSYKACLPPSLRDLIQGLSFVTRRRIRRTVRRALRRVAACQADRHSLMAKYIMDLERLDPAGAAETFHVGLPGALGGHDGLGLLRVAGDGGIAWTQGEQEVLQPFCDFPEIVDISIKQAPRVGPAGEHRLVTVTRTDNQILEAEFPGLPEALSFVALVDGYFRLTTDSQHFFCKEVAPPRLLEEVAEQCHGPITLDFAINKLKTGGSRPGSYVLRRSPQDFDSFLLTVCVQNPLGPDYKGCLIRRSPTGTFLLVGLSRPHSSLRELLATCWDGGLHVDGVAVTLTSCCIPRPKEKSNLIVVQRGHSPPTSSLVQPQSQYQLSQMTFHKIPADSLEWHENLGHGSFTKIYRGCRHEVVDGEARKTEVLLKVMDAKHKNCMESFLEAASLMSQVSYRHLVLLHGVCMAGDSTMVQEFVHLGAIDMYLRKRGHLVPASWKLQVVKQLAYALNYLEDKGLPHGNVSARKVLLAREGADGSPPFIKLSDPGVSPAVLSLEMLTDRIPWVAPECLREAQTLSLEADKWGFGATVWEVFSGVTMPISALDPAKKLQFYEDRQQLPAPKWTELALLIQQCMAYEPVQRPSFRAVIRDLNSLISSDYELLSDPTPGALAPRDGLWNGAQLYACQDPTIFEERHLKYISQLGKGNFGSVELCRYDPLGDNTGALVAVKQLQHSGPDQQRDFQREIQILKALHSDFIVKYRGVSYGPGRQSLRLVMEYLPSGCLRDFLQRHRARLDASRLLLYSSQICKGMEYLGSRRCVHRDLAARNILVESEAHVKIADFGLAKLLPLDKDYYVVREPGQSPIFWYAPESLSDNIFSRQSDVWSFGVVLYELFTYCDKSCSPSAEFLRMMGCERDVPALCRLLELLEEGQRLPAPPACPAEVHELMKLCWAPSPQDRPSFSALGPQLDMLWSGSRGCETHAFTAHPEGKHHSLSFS

[22] = test system: Jurkat; experiment: Downregulation of Ikaros level in human Jurkat cells at 30 nM measured after 4 hrs by DIA-Based Proteomic analysis; assay type: functional, cell-based
[23] = Inhibition of TYK2 dependent STAT3 phosphorylation in IL-6 stimulated human PBMC cells preincubated for 60 mins followed by IL-6 stimulation and measured after 60 mins by FACS assay; assay type: cell-based

T1 sequence (P29597 whole entry, looked up): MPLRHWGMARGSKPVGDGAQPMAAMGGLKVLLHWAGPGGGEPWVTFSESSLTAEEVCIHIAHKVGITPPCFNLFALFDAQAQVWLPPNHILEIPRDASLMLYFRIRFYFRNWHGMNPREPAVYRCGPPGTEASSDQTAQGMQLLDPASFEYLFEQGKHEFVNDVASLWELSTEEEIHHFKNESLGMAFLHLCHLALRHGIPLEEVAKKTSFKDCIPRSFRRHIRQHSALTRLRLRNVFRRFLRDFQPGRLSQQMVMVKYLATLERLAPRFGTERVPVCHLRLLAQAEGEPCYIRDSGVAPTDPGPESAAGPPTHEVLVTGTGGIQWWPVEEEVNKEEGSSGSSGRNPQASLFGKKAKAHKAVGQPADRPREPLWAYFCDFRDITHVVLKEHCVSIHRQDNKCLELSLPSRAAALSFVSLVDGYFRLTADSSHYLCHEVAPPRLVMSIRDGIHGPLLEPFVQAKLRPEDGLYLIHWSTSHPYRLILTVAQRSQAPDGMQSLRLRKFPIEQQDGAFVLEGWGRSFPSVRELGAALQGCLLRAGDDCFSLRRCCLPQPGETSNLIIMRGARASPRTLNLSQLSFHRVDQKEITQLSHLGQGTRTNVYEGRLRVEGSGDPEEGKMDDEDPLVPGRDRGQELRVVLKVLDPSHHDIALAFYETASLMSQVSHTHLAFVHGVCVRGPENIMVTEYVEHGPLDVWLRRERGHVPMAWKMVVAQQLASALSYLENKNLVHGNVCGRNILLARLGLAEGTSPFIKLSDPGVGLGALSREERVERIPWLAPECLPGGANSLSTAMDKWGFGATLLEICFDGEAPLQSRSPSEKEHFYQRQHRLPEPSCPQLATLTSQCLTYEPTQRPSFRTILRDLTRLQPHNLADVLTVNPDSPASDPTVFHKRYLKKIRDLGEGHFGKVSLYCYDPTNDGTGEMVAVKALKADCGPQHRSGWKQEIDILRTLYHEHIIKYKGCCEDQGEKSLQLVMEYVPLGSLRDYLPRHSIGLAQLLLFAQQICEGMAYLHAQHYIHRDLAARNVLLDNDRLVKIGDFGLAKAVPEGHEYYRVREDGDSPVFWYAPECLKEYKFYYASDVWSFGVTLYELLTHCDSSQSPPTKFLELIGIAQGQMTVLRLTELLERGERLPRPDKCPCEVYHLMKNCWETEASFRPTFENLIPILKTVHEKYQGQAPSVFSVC
T1 sequence (Q96SW2 whole entry, looked up): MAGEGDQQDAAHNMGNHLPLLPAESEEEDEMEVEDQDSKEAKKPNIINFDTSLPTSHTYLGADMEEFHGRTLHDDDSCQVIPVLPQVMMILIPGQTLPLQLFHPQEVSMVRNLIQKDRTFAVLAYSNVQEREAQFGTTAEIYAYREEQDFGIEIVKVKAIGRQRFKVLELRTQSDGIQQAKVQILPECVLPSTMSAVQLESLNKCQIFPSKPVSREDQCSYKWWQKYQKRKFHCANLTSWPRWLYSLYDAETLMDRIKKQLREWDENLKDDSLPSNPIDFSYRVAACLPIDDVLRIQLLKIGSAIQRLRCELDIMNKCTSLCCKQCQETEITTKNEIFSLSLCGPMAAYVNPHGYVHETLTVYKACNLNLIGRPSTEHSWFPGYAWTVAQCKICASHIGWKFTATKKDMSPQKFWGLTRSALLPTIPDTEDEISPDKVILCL
Chain of Tyrosine-protein kinase JAK2 (O60674 whole entry): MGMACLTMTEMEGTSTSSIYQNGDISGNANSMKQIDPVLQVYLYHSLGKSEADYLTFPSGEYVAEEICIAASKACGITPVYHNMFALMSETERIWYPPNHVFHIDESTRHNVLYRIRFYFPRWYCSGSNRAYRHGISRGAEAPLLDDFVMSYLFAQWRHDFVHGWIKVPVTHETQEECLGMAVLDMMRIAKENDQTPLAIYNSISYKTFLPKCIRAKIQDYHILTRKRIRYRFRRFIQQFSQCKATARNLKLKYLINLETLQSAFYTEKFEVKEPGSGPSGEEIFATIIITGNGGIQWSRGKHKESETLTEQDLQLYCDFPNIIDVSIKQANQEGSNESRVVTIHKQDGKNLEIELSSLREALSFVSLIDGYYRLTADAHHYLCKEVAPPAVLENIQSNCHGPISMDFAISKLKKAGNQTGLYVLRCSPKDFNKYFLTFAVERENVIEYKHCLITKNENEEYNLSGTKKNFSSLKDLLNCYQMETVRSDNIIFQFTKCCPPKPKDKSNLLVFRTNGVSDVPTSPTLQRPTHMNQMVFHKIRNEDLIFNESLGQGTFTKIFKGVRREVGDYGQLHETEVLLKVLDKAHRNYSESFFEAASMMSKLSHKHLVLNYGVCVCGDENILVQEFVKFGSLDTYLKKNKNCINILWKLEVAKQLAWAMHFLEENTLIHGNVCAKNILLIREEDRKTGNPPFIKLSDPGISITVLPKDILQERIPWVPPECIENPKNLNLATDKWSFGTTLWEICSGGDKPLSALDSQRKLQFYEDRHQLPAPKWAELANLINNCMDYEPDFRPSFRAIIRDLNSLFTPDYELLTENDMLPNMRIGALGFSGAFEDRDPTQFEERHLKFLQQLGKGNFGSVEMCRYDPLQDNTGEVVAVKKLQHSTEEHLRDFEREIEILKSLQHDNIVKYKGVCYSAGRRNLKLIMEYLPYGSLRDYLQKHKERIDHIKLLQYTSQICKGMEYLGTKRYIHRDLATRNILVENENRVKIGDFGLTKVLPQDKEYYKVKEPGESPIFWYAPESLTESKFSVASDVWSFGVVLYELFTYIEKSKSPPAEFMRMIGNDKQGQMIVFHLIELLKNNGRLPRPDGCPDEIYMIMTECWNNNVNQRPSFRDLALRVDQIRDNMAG

IC50 [1]: > 10 µM | Activity [6]: inactive | Activity [10]: 90% | AUC(0-t) at 24 h [11]: 4770 ng·h/mL | Activity [12]: inactive | Activity [13]: Active | Activity [14]: inactive | Ratio IC50 [16]: > 80 | Activity [18]: Active | Activity [19]: inactive | IC50 [21]: > 10 µM | IC50 [23]: > 10 µM
Structure (SMILES): CNC(=O)c1cnc(Nc2ccc(C(=O)NC3CCC(Nc4ccc5c(c4)C(=O)N(C4CCC(=O)NC4=O)C5=O)CC3)cn2)cc1Nc1cccc(-c2ncc(F)cn2)c1OC (stereo not drawn)
Activity [2]: Active | Activity [3]: Active | Activity [4]: Active | Activity [5]: Active | Activity [7]: Active | Activity [8]: Active | Activity [9]: Active | Activity [15]: Active | Activity [17]: Active | Activity [20]: Active | Activity [22]: inactive
